The source of these data is ChEMBL document CHEMBL1152844, “Synthesis and anti-HIV studies of 2- and 3-adamantyl-substituted thiazolidin-4-ones” (Eur J Med Chem, 2009).

Activity calls are given as the source filed them. The calls are words filed in the database; no cut-off is given here.

The subject of series [1] is Human immunodeficiency virus 1. Nature of the series: Antiviral activity against HIV1 3B infected in human CEM cells assessed as inhibition of virus-induced cytopathicity after 4 days. The conditions noted are these: Human immunodeficiency virus 1, 3B, CCRF-CEM, 96 h. In kind it is functional, organism-based.
The test system of series [2] is Human immunodeficiency virus 2. The series is described as follows: Antiviral activity against HIV2 ROD infected in human CEM cells assessed as inhibition of virus-induced cytopathicity after 4 days. Format: functional, organism-based. The conditions noted are these: Human immunodeficiency virus 2, ROD, CCRF-CEM, 96 h. (In general: Cytopathic effects are the visible damage that an infection or toxin causes in cultured cells.)

The subject of series [3] is CCRF-CEM. The series is described as follows: Cytotoxicity against HIV-infected human CEM cells. In kind it is cell-based. The conditions noted are these: ccrf-cem.
The nature of series [4]: Selectivity index, ratio of CC50 for human CEM cells to EC50 for HIV1 3B. Format: toxicity, cell-based, CCRF-CEM. The conditions noted are these: read-out: Ratio CC50/EC50.
The test system of series [5] is Human alphaherpesvirus 1. Nature of the series: Antiviral activity against Herpes simplex virus type 1 infected in HEL cells. In kind it is functional, organism-based.
The subject of series [6] is Human alphaherpesvirus 2. The series is described as follows: Antiviral activity against Herpes simplex virus type 2 infected in HEL cells. Format: functional, organism-based.
In series [7] the test system is Vaccinia virus. The series is described as follows: Antiviral activity against Vaccinia virus infected in HEL cells. Format: functional, organism-based. The conditions noted are these: Orthopoxvirus vaccinia.
The subject of series [8] is Vesicular stomatitis virus. Nature of the series: Antiviral activity against Vesicular stomatitis virus infected in HEL cells. In kind it is functional, organism-based.
In series [9] the test system is Human respirovirus 3. Nature of the series: Antiviral activity against Parainfluenza virus type 3 infected in african green monkey Vero cells. In kind it is functional, organism-based.
Series [10] has as its system Mammalian orthoreovirus 1. Nature of the series: Antiviral activity against Reovirus 1 infected in african green monkey Vero cells. In kind it is functional, organism-based.
The subject of series [11] is Sindbis virus. The series is described as follows: Antiviral activity against Sindbis virus infected in african green monkey Vero cells. In kind it is functional, organism-based.
Series [12] has as its system Coxsackievirus B4. Nature of the series: Antiviral activity against Coxsackievirus B4 infected in african green monkey Vero cells. In kind it is functional, organism-based.
Series [13] concerns Punta Toro virus. Nature of the series: Antiviral activity against Punta Toro virus infected in african green monkey Vero cells. In kind it is functional, organism-based.
Series [14] concerns Vesicular stomatitis virus. Nature of the series: Antiviral activity against Vesicular stomatitis virus infected in human HeLa cells. Format: functional, organism-based.
The test system of series [15] is Respiratory syncytial virus. The series is described as follows: Antiviral activity against Respiratory syncytial virus infected in human HeLa cells. Format: functional, organism-based.
The subject of series [16] is Coxsackievirus B4. Nature of the series: Antiviral activity against Coxsackievirus B4 infected in human HeLa cells. In kind it is functional, organism-based.
In series [17] the test system is Feline coronavirus. The series is described as follows: Antiviral activity against Feline coronavirus infected in crandel feline kidney cells. In kind it is functional, organism-based.
Series [18] deals with Influenza A virus. Nature of the series: Antiviral activity against Influenza virus type A H1N1 infected in MDCK cells. In kind it is functional, organism-based.
For series [19], the system named is Influenza A virus. The series is described as follows: Antiviral activity against Influenza virus type A H3N2 infected in MDCK cells. In kind it is functional, organism-based.
Series [20] relates to Influenza B virus. Nature of the series: Antiviral activity against Influenza virus type B infected in MDCK cells. In kind it is functional, organism-based.

A word on the EC50: it is the concentration at which the effect is half-maximal. Usually CC50 stands for the concentration giving 50% cytotoxicity. Take `Cc1cc(N2C(=O)CSC2C23CC4CC(CC(C4)C2)C3)nc(C)n1` (centres undefined): the concentration for a half-maximal effect (EC50) in [1] and in series [2] was at least 58.2 µM in each case. Moreover, in series [3], it took 94 µM to reach half-maximal cytotoxicity (CC50). Moreover, in series [4], the selectivity ratio is under 1.6. Also, the outcome in [5], in series [6], in series [7], in series [8], in [9] and in series [10] was inactive. For the same compound, the outcome in series [11], in [12], in series [13], in series [14], in series [15] and in series [16] was inactive. Moreover, the outcome in series [17], in [18], in series [19] and in series [20] was inactive.
Regarding `O=C1CSC(c2c(F)cccc2Cl)N1CCC12CC3CC(CC(C3)C1)C2` (centres undefined), the EC50 was 3.8 µM in series [1] and at least 10.1 µM in series [2]. The CC50 in series [3] amounted to 18.5 µM. In addition, the selectivity ratio in series [4] was found to be 4.7. The outcome in series [5], in series [6], in [7], in series [8], in [9] and in series [10] was inactive. In addition, the outcome in series [11], in series [12], in [13], in [14], in series [15] and in series [16] was inactive. In addition, the result in series [17], in series [18], in series [19] and in series [20] was inactive.
Regarding `COc1cc(C2SCC(=O)N2CC23CC4CC(CC(C4)C2)C3)cc(OC)c1OC` (centres undefined), the concentration giving a half-maximal response (EC50) in series [1] and in series [2] was at least 10.9 µM throughout. In addition, half-maximal cytotoxicity in [3] (CC50) was put at 18 µM. Also, the selectivity ratio in series [4] is under 1.6. The result in series [5], in series [6], in series [7], in series [8], in [9] and in series [10] was inactive. The result in [11], in series [12], in series [13], in series [14], in series [15] and in [16] was inactive. For the same compound, the outcome in [17], in series [18], in [19] and in series [20] was inactive.
On to `Cc1cc(C)nc(N2C(=O)CSC2CC23CC4CC(CC(C4)C2)C3)n1` (centres undefined), for which the values for the EC50 in series [1] and in series [2] were 8.6 µM and 30 µM, respectively. Besides, the CC50 in series [3] amounted to 27 µM. Further, the selectivity ratio in [4] turned out to be 3. The outcome in [5], in series [6], in series [7], in series [8], in [9] and in series [10] was inactive. For the same compound, the outcome in [11], in series [12], in series [13], in series [14], in [15] and in series [16] was inactive. Also, the result in [17], in [18], in [19] and in series [20] was inactive.
For `Cc1cc(C)nc(N2C(=O)CSC2C23CC4CC(CC(C4)C2)C3)n1` (centres undefined), the EC50 in series [1] is 0.67 µM; in [2], at least 58 µM. Moreover, in series [3], the 50% cytotoxic concentration (CC50) was 122 µM. Moreover, the selectivity ratio in [4] was determined as 182. The result in series [5], in [6], in series [7], in [8], in [9] and in [10] was inactive. The result in series [11], in series [12], in [13], in series [14], in series [15] and in series [16] was inactive. Besides, the outcome in series [17], in series [18], in [19] and in [20] was inactive.
As for `Cc1cccc(N2C(=O)CSC2CC23CC4CC(CC(C4)C2)C3)n1` (centres undefined), the EC50 turned out to be 17.8 µM in series [1] and 21.9 µM in series [2]. The CC50 in series [3] was determined as 35 µM. Also, in series [4], the selectivity ratio stood at 1.9. For the same compound, the result in series [5], in [6], in series [7], in [8], in series [9] and in [10] was inactive. In addition, the result in series [11], in [12], in [13], in series [14], in series [15] and in series [16] was inactive. Further, the outcome in series [17], in series [18], in [19] and in [20] was inactive.
Take `Cc1cc(Cl)nc(N2C(=O)CSC2CC23CC4CC(CC(C4)C2)C3)n1` (centres undefined): the 50% effective concentration (EC50) is over 53 µM in [1] and at least 53 µM in [2]. In [3], this compound registered a 50% cytotoxic concentration (CC50) of 102 µM. In series [4], the selectivity ratio is under 1.9. Also, the outcome in series [5], in [6], in series [7], in series [8], in series [9] and in series [10] was inactive. For the same compound, the outcome in series [11], in [12], in series [13], in series [14], in series [15] and in [16] was inactive. Besides, the result in series [17], in series [18], in series [19] and in [20] was inactive.
Consider `O=C1CSC(CC23CC4CC(CC(C4)C2)C3)N1CCN1CCCC1` (centres undefined), for which the concentration giving a half-maximal response (EC50) was 48.7 µM in [1] and at least 57 µM in series [2]. In series [3], this compound gave a CC50 of 77 µM. Also, the selectivity ratio in series [4] turned out to be 1.6. For the same compound, the outcome in [5], in [6], in series [7], in series [8], in [9] and in series [10] was inactive. Moreover, the outcome in [11], in series [12], in [13], in series [14], in series [15] and in [16] was inactive. For the same compound, the result in series [17], in series [18], in series [19] and in [20] was inactive.
Take `COc1cc(C2SCC(=O)N2CCC23CC4CC(CC(C4)C2)C3)cc(OC)c1OC` (centres undefined): the half-maximal effective concentration (EC50) in series [1] came to 7.8 µM; in series [2] it was 6.5 µM. Also, half-maximal cytotoxicity in series [3] (CC50) was put at 11.3 µM. Further, the selectivity ratio in series [4] worked out at 1.4. For the same compound, the result in [5], in [6], in series [7], in [8], in series [9] and in series [10] was inactive. Also, the result in series [11], in series [12], in [13], in series [14], in series [15] and in series [16] was inactive. Moreover, the outcome in series [17], in series [18], in series [19] and in series [20] was inactive.
Take `Cc1ccnc2c1NC(=O)c1cccnc1N2C1CC1` [NEVIRAPINE]: in series [2], the EC50 is over 50 µM. The same compound displayed a CC50 in [3] of over 50 µM.
In turn, `O=c1[nH]cnc2c1ncn2[C@H]1CC[C@@H](CO)O1` [DIDANOSINE] yielded a CC50 in series [3] of over 250 µM. In addition, the selectivity ratio in series [4] is over 54.
